# Data as given in patent US7998952B2, “Thiolactams and uses thereof” (Millennium Pharmaceuticals, Inc., priority 2008, dated 2011).
# Molecular target: T1, recombinant human PLK1[2-369]T210D (Homo sapiens, UniProt P53350, T210D)
# T1 construct: recombinant human PLK1[2-369]T210D; Smt (SUMO) fusion partner (N, cleaved yes); host or cells: E. coli
# Assay: PLK1 DELFIA Kinase Assay
# Type: biochemical
# Conditions: 50 μM ATP, 2 μM peptide substrate, 0.3 nM enzyme, 90 minutes at room temperature
# In short: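 E. coli-expressed human PLK1, cleaved from an Smt fusion after Ni2+ purification, is reacted with or without inhibitor for 90 minutes at room temperature and stopped with EDTA. Product is captured on Neutravidin plates and quantified by europium DELFIA time-resolved fluorescence.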
# T1 sequence (P53350 2-369 T210D): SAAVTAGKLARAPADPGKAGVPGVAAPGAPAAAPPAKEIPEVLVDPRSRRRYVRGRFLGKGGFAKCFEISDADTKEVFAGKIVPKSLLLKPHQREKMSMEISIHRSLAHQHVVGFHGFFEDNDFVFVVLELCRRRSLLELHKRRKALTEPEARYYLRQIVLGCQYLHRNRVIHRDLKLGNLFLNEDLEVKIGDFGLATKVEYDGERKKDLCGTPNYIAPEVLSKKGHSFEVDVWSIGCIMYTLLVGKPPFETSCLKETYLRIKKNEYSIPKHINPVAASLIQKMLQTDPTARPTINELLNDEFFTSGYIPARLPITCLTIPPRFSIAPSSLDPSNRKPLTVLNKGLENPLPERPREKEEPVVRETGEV
row,SMILES,IC50 [nM]
1,"Cc1ncc(C2CCN(CCF)CC2)cc1Nc1ncc2c(n1)-c1ccc(Cl)cc1NC(=S)C2 [Compound I-84, 9-chloro-2-({5-[1-(2-fluoroethyl)piperidin-4-yl]-2-methylpyridin-3-yl}amino)-5,7-dihydro-6H-pyrimido[5,4-d][1]benzazepine-6-thione]",< 5
2,"Cc1nc(NC2CCNCC2)ccc1Nc1ncc2c(n1)-c1ccc(Cl)cc1NC(=S)C2 [Compound I-85, 9-chloro-2-{[2-methyl-6-(piperidin-4-ylamino)pyridin-3-yl]amino}-5,7-dihydro-6H-pyrimido[5,4-d][1]benzazepine-6-thione]",< 5
3,"Cc1nc2c(cc1Nc1ncc3c(n1)-c1ccc(C(F)(F)F)cc1NC(=S)C3)CN(C)CC2 [Compound I-86, 2-[(2,6-dimethyl-5,6,7,8-tetrahydro-1,6-naphthyridin-3-yl)amino]-9-(trifluoromethyl)-5,7-dihydro-6H-pyrimido[5,4-d][1]benzazepine-6-thione]",< 5
4,"Cc1ncc(CCN2CCCCC2)cc1Nc1ncc2c(n1)-c1ccc(C(F)(F)F)cc1NC(=S)C2 [Compound I-87, 2-{[2-methyl-5-(2-piperidin-1-ylethyl)pyridin-3-yl]amino}-9-(trifluoromethyl)-5,7-dihydro-6H-pyrimido[5,4-d][1]benzazepine-6-thione]",< 5
5,"Cc1nc(N(C)CCCN(C)C)ccc1Nc1ncc2c(n1)-c1ccc(C(F)(F)F)cc1NC(=S)C2 [Compound I-88, 2-({6-[[3-(dimethylamino)propyl](methyl)amino]-2-methylpyridin-3-yl}amino)-9-(trifluoromethyl)-5,7-dihydro-6H-pyrimido[5,4-d][1]benzazepine-6-thione]",< 5
6,"Cc1ncc(CCCCN(C)C)cc1Nc1ncc2c(n1)-c1ccc(Cl)cc1NC(=S)C2 [Compound I-89, 9-chloro-2-({5-[4-(dimethylamino)butyl]-2-methylpyridin-3-yl}amino)-5,7-dihydro-6H-pyrimido[5,4-d][1]benzazepine-6-thione]",< 5
7,"Cc1ncc(CCCN)cc1Nc1ncc2c(n1)-c1ccc(C(F)(F)F)cc1NC(=S)C2 [Compound I-90, 2-{[5-(3-aminopropyl)-2-methylpyridin-3-yl]amino}-9-(trifluoromethyl)-5,7-dihydro-6H-pyrimido[5,4-d][1]benzazepine-6-thione]",< 5
8,"Cc1nc(NC2CCN(C)CC2)ccc1Nc1ncc2c(n1)-c1ccc(C(F)(F)F)cc1NC(=S)C2 [Compound I-92, 2-({2-methyl-6-[(1-methylpiperidin-4-yl)amino]pyridin-3-yl}amino)-9-(trifluoromethyl)-5,7-dihydro-6H-pyrimido[5,4-d][1]benzazepine-6-thione]",< 5
9,"Cc1ncccc1Nc1ncc2c(n1)-c1cc(CCCN(C)C)c(Cl)cc1NC(=S)C2 [Compound I-93, 9-chloro-10-[3-(dimethylamino)propyl]-2-[(2-methylpyridin-3-yl)amino]-5,7-dihydro-6H-pyrimido[5,4-d][1]benzazepine-6-thione]",5 to 25
10,"Cc1ncc(Nc2ncc3c(n2)-c2ccc(Cl)cc2NC(=S)C3)cc1CCCN(C)C [Compound I-94, 9-chloro-2-({5-[3-(dimethylamino)propyl]-6-methylpyridin-3-yl}amino)-5,7-dihydro-6H-pyrimido[5,4-d][1]benzazepine-6-thione]",< 5
11,"Cc1nc(N(C)C2CCN(C)C2)ccc1Nc1ncc2c(n1)-c1ccc(C(F)(F)F)cc1NC(=S)C2 (stereo not drawn) [Compound I-95, 2-({2-methyl-6-[methy(1-methylpyrrolidin-3-yl)amino]pyridin-3-yl}amino)-9-(trifluoromethyl)-5,7-dihydro-6H-pyrimido[5,4-d][1]benzazepine-6-thione]",< 5
12,"Cc1nc2c(cc1Nc1ncc3c(n1)-c1ccc(Cl)cc1NC(=S)C3)CC(N(C)C)CC2 (stereo not drawn) [Compound I-96, 9-chloro-2-{[6-(dimethylamino)-2-methyl-5,6,7,8-tetrahydroquinolin-3-yl]amino}-5,7-dihydro-6H-pyrimido[5,4-d][1]benzazepine-6-thione]",< 5
13,"Cc1nc(NCCN(C)C)ccc1Nc1ncc2c(n1)-c1ccc(Cl)cc1NC(=S)C2 [Compound I-97, 9-chloro-2-[(6-{[2-(dimethylamino)-ethyl]amino}2-methylpyridin-3-yl)amino]-5,7-dihydro-6H-pyrimido[5,4-d][1]benzazepine-6-thione]",5 to 25
14,"Cc1ccnc(C)c1Nc1ncc2c(n1)-c1ccc(C(F)(F)F)cc1NC(=S)C2 [Compound I-98, 2-[(2,4-dimethylpyridin-3-yl)amino]-9-(trifluoromethyl)-5,7-dihydro-6H-pyrimido[5,4-d][1]benzazepine-6-thione]",> 25
15,"Cc1ncc(CCN(C)C)cc1Nc1ncc2c(n1)-c1ccc(Cl)cc1NC(=S)C2 [Compound I-99, 9-chloro-2-({5-[2-(dimethylamino)-ethyl]-2-methylpyridin-3-yl}amino)-5,7-dihydro-6H-pyrimido[5,4-d][1]benzazepine-6-thione]",< 5
16,"Cc1nc(N2CCOCC2)ccc1Nc1ncc2c(n1)-c1ccc(C(F)(F)F)cc1NC(=S)C2 [Compound I-100, 2-[(2-methyl-6-morpholin-4-ylpyridin-3-yl)amino]-9-(trifluoromethyl)-5,7-dihydro-6H-pyrimido[5,4-d][1]benzazepine-6-thione]",< 5
17,"Cc1nc(CCCN(C)C)ccc1Nc1ncc2c(n1)-c1ccc(C(F)(F)F)cc1NC(=S)C2 [Compound I-101, 2-({6-[3-(dimethylamino)propyl]-2-methylpyridin-3-yl}amino)-9-(trifluoromethyl)-5,7-dihydro-6H-pyrimido[5,4-d][1]benzazepine-6-thione]",5 to 25
18,"CC(C)(C)C(=O)Nc1ccc(Nc2ncc3c(n2)-c2ccc(Cl)cc2NC(=S)C3)cn1 [Compound I-102, N-{5-[(9-chloro-6-thioxo-6,7-dihydro-5H-pyrimido[5,4-d][1]benzazepin-2-yl)amino]pyridin-2-yl}-2,2-dimethylpropanamide]",5 to 25
19,"Cc1ncc(N2CCN(C)CC2)cc1Nc1ncc2c(n1)-c1ccc(Cl)cc1NC(=S)C2 [Compound I-103, 9-chloro-2-{[2-methyl-5-(4-methylpiperazin-1-yl)pyridin-3-yl]amino}-5,7-dihydro-6H-pyrimido[5,4-d][1]benzazepine-6-thione]",< 5
20,"CN(C)CCc1cncc(Nc2ncc3c(n2)-c2ccc(Cl)cc2NC(=S)C3)c1 [Compound I-104, 9-chloro-2-({5-[2-(dimethylamino)ethyl]pyridin-3-yl}amino)-5,7-dihydro-6H-pyrimido[5,4-d][1]benzazepine-6-thione]",< 5
21,"Cc1nc(N(C)C2CCN(C)CC2)ccc1Nc1ncc2c(n1)-c1ccc(Cl)cc1NC(=S)C2 [Compound I-105, 9-chloro-2-({2-methyl-6-[methyl(1-methylpiperidin-4-yl)amino]pyridin-3-yl}amino)-5,7-dihydro-6H-pyrimido[5,4-d][1]benzazepine-6-thione]",< 5
22,"Cc1nc(N2CCCC2)ccc1Nc1ncc2c(n1)-c1ccc(Cl)cc1NC(=S)C2 [Compound I-106, 9-chloro-2-[(2-methyl-6-pyrrolidin-1-ylpyridin-3-yl)amino]-5,7-dihydro-6H-pyrimido[5,4-d][1]benzazepine-6-thione]",< 5
23,"CN1CCN(c2cncc(Nc3ncc4c(n3)-c3ccc(Cl)cc3NC(=S)C4)c2)CC1 [Compound I-107, 9-chloro-2-{[5-(4-methylpiperazin-1-yl)pyridin-3-yl]amino}-5,7-dihydro-6H-pyrimido[5,4-d][1]benzazepine-6-thione]",< 5
24,"Cc1nc(N2CCOCC2)ccc1Nc1ncc2c(n1)-c1ccc(Cl)cc1NC(=S)C2 [Compound I-109, 9-chloro-2-[(2-methyl-6-morpholin-4-ylpyridin-3-yl)amino]-5,7-dihydro-6H-pyrimido[5,4-d][1]benzazepine-6-thione]",< 5
25,"Cc1nc(N2CCCC2)ccc1Nc1ncc2c(n1)-c1ccc(C(F)(F)F)cc1NC(=S)C2 [Compound I-110, 2-[(2-methyl-6-pyrrolidin-1-ylpyridin-3-yl)amino]-9-(trifluoromethyl)-5,7-dihydro-6H-pyrimido[5,4-d][1]benzazepine-6-thione]",5 to 25
26,"Cc1nc(N(C)CCN(C)C)ccc1Nc1ncc2c(n1)-c1ccc(Cl)cc1NC(=S)C2 [Compound I-112, 9-chloro-2-({6-[[2-(dimethylamino)ethyl](methyl)amino]-2-methylpyridin-3-yl}amino)-5,7-dihydro-6H-pyrimido[5,4-d][1]benzazepine-6-thione]",5 to 25
27,"Cc1nc2c(cc1Nc1ncc3c(n1)-c1ccc(C(F)(F)F)cc1NC(=S)C3)C[C@H](N(C)C)CC2 [Compound I-113, 2-{[(6R)-6-(dimethylamino)-2-methyl-5,6,7,8-tetrahydroquinolin-3-yl]amino}-9-(trifluoromethyl)-5,7-dihydro-6H-pyrimido[5,4-d][1]benzazepine-6-thione]",< 5
28,Cc1nc2c(cc1Nc1ncc3c(n1)-c1ccc(C(F)(F)F)cc1NC(=S)C3)C[C@@H](N(C)C)CC2 [Compound I-114],< 5
29,"Cc1nc2c(cc1Nc1ncc3c(n1)-c1ccc(C(F)(F)F)cc1NC(=S)C3)CCCN2 [Compound I-115, 2-[(2-methyl-5,6,7,8-tetrahydro-1,8-naphthyridin-3-yl)amino]-9-(trifluoromethyl)-5,7-dihydro-6H-pyrimido[5,4-d][1]benzazepine-6-thione]",< 5
30,"Cc1nc(C(=O)NC2CCN(C)CC2)ccc1Nc1ncc2c(n1)-c1ccc(Cl)cc1NC(=S)C2 [Compound I-116, 5-[(9-chloro-6-thioxo-6,7-dihydro-5H-pyrimido[5,4-d][1]benzazepin-2-yl)amino]-6-methyl-N-(1-methylpiperidin-4-yl)pyridine-2-carboxamide]",5 to 25
